Measured values as given in article PMC11864979, “First-in-class ultralong-target-residence-time p38α inhibitors as a mitosis-targeted therapy for colorectal cancer” (Nature Cancer, 2025).
Read-outs that look alike come from different tables or passages of the source.

Experiments:
Experiment in all cases: selectivity profiling in a panel of 340 wild-type kinases (Reaction Biology Europe)
Assay type in all cases: binding
[1] = target: T1, 340 wild-type kinases (Homo sapiens, UniProt Q16512)
T1 construct: purchased Reaction Biology Europe
T1 sequence (Q16512 whole entry): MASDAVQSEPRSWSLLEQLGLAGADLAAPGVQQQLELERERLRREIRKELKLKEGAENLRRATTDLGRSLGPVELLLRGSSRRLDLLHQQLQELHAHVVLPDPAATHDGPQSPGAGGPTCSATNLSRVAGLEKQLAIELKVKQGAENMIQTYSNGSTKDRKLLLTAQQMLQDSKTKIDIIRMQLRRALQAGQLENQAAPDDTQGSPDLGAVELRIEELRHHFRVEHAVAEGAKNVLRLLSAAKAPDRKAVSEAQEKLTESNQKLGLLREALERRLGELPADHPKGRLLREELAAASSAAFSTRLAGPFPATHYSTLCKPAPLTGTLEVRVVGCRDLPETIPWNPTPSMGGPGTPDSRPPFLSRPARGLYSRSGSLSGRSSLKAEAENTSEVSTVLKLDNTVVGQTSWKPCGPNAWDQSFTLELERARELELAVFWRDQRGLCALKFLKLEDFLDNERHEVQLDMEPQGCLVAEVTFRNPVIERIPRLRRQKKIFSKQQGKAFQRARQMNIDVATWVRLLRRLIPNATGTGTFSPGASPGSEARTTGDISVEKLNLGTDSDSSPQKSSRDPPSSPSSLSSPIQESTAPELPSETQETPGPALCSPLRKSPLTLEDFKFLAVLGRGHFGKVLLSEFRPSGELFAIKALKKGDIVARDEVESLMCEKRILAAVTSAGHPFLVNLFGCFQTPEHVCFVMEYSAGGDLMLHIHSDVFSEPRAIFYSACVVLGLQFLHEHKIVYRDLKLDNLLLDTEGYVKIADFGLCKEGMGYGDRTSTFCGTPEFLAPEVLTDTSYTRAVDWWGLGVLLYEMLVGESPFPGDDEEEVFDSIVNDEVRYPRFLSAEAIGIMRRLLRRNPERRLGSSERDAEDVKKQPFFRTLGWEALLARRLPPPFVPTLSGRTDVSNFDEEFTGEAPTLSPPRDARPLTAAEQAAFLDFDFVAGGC

[2] = target: T2, 340 wild-type kinases (Homo sapiens, UniProt Q9H3Y6)
T2 construct: purchased Reaction Biology Europe
T2 sequence (Q9H3Y6 whole entry): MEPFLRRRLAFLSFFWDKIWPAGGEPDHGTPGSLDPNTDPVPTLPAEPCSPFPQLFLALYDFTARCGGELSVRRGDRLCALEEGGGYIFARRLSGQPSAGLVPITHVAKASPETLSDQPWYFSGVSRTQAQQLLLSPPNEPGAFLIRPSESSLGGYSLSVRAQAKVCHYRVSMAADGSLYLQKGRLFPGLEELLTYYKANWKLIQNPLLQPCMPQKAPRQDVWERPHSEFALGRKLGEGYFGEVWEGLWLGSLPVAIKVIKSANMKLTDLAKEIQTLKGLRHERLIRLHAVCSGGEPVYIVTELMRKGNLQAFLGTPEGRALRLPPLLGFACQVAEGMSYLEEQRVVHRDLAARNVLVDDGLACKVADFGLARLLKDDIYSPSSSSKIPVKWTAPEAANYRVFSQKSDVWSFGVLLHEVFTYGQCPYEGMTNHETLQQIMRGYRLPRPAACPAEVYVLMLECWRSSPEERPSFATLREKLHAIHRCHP

[3] = target: T3, 340 wild-type kinases (Homo sapiens, UniProt P07948)
T3 construct: purchased Reaction Biology Europe
T3 sequence (P07948 whole entry): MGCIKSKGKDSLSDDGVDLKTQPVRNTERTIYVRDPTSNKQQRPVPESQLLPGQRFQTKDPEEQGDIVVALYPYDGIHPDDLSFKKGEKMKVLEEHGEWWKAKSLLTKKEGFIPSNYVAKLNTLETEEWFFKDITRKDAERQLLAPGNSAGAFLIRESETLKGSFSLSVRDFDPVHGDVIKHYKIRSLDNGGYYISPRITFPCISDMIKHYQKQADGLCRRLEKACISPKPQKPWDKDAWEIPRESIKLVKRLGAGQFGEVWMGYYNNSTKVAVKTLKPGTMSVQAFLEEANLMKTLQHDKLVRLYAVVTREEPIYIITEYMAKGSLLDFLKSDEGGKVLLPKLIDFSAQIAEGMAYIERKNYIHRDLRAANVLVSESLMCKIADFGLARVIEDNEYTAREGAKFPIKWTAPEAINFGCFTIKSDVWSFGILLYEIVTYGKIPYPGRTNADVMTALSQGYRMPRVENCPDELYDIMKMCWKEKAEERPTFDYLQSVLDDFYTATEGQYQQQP

[4] = target: T4, 340 wild-type kinases (Homo sapiens, UniProt P42679)
T4 construct: purchased Reaction Biology Europe
T4 sequence (P42679 1-507): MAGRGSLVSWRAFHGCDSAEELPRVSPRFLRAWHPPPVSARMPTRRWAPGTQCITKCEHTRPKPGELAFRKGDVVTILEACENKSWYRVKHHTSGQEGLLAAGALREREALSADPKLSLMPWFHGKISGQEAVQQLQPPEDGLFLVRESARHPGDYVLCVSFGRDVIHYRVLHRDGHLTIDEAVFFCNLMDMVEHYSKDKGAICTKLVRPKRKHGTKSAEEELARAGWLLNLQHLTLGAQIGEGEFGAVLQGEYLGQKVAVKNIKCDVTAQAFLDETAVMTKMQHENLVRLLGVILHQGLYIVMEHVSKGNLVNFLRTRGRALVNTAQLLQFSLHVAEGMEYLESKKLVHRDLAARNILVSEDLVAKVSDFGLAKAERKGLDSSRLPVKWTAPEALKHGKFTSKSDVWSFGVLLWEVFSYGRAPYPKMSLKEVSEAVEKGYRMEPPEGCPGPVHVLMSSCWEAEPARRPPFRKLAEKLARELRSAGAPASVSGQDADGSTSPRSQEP

[5] = target: T5, 340 wild-type kinases (Homo sapiens, UniProt O75582)
T5 construct: purchased Reaction Biology Europe
T5 sequence (O75582 whole entry): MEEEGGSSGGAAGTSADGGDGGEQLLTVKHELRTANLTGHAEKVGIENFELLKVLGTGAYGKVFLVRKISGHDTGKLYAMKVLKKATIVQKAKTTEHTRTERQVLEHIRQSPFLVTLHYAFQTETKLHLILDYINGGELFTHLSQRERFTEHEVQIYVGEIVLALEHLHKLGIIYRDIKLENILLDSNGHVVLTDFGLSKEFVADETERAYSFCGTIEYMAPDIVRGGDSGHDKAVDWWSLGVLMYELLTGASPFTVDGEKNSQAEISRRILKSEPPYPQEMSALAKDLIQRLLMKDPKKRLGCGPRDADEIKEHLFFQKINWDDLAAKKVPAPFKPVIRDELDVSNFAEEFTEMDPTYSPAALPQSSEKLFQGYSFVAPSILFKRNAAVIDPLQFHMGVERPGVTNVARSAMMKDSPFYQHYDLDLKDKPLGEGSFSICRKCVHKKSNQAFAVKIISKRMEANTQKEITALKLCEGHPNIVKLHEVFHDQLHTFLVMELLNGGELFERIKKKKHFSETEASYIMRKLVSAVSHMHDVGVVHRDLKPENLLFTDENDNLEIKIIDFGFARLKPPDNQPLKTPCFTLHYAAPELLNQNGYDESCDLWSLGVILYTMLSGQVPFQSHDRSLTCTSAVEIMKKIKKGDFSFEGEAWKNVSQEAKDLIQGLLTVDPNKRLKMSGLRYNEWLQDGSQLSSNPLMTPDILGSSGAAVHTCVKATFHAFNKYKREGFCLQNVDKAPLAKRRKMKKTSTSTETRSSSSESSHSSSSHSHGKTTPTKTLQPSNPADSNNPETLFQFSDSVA

[6] = target: T6, 340 wild-type kinases (Homo sapiens, UniProt Q9UF33)
T6 construct: purchased Reaction Biology Europe
T6 sequence (Q9UF33 23-1036): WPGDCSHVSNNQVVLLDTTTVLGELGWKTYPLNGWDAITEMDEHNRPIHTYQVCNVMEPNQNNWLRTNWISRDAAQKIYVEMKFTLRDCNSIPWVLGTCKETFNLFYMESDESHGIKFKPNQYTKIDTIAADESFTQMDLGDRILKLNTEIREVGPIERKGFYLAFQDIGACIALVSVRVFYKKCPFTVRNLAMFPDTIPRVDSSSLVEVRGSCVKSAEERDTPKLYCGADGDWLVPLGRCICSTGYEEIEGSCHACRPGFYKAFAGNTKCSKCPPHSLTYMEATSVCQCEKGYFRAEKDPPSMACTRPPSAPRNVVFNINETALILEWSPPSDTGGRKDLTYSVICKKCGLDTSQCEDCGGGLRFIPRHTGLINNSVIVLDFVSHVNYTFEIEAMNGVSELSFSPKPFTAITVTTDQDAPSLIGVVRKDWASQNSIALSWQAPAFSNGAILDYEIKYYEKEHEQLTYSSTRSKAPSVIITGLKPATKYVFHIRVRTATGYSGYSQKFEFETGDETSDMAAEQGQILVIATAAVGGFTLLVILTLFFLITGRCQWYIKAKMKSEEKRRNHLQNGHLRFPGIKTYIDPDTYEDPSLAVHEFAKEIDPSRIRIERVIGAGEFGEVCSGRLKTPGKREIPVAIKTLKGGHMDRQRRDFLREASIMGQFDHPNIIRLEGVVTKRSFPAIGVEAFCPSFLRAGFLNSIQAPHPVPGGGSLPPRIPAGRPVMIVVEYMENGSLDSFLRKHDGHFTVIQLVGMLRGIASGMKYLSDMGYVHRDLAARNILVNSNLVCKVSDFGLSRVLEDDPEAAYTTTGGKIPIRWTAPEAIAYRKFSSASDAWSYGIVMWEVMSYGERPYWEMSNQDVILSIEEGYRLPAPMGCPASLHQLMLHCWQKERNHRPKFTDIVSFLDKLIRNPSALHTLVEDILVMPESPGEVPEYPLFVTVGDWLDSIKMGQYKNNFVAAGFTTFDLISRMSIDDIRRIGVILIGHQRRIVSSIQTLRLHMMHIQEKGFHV

[7] = target: T7, 340 wild-type kinases (Homo sapiens, UniProt Q96L34)
T7 construct: purchased Reaction Biology Europe
T7 sequence (Q96L34 1-752): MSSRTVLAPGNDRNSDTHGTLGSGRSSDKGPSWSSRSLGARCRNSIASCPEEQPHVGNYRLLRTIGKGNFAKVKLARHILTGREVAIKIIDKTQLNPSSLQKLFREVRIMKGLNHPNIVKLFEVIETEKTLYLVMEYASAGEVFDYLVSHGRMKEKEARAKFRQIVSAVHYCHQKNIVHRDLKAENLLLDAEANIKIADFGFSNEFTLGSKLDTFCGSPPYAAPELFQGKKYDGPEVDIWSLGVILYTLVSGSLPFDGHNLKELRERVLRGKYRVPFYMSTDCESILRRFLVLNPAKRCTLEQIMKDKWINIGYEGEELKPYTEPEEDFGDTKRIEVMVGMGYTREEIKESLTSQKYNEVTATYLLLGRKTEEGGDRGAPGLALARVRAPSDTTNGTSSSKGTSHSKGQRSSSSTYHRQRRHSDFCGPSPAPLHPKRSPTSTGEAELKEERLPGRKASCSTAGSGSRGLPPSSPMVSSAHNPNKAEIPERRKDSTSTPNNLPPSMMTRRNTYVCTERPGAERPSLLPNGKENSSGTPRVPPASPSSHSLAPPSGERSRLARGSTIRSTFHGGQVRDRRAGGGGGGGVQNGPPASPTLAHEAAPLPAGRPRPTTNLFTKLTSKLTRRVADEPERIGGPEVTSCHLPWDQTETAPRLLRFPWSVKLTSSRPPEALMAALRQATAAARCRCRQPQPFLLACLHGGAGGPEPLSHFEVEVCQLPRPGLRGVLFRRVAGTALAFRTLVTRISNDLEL

## CNC(=O)c1ccc2c(c1)C(=O)c1ccc(Nc3ccc(F)c(NC(=O)C4CC4)c3)cc1CC2 [Compound 2015]
[1]; 0.2 µM 2015, read-out: PRK1 residual activity
  remaining activity at 0.2 µM: 101%
[1]; 1 µM 2015, read-out: PRK1 residual activity
  remaining activity at 1 µM: 97.6%
[1]; PRK1, 0.2 µM, read-out: residual activity
  remaining activity at 0.2 µM: 101%
[1]; PRK1, 1 µM, read-out: residual activity
  remaining activity at 1 µM: 97.6%
[2]; 0.2 µM 2015, read-out: SRMS residual activity
  remaining activity at 0.2 µM: 96.9%
[2]; 1 µM 2015, read-out: SRMS residual activity
  remaining activity at 1 µM: 98.5%
[2]; SRMS, 0.2 µM, read-out: residual activity
  remaining activity at 0.2 µM: 96.9%
[2]; SRMS, 1 µM, read-out: residual activity
  remaining activity at 1 µM: 98.5%
[3]; 0.2 µM 2015, read-out: LYN residual activity
  remaining activity at 0.2 µM: 109%
[3]; 1 µM 2015, read-out: LYN residual activity
  remaining activity at 1 µM: 82.5%
[3]; LYN, 0.2 µM, read-out: residual activity
  remaining activity at 0.2 µM: 109%
[3]; LYN, 1 µM, read-out: residual activity
  remaining activity at 1 µM: 82.5%
[4]; 0.2 µM 2015, read-out: MATK residual activity
  remaining activity at 0.2 µM: 112%
[4]; 1 µM 2015, read-out: MATK residual activity
  remaining activity at 1 µM: 100%
[4]; MATK, 0.2 µM, read-out: residual activity
  remaining activity at 0.2 µM: 112%
[4]; MATK, 1 µM, read-out: residual activity
  remaining activity at 1 µM: 100%
[5]; 0.2 µM 2015, read-out: RPS6KA5 residual activity
  remaining activity at 0.2 µM: 93.6%
[5]; RPS6KA5, 0.2 µM, read-out: residual activity
  remaining activity at 0.2 µM: 93.6%
[5]; RPS6KA5, 1 µM, read-out: residual activity
  remaining activity at 1 µM: 90.2%
[6]; 0.2 µM 2015, read-out: EPHA6 residual activity
  remaining activity at 0.2 µM: 87.2%
[6]; 1 µM 2015, read-out: EPHA6 residual activity
  remaining activity at 1 µM: 85.9%
[6]; EPHA6, 0.2 µM, read-out: residual activity
  remaining activity at 0.2 µM: 87.2%
[6]; EPHA6, 1 µM, read-out: residual activity
  remaining activity at 1 µM: 85.9%
[7]; 0.2 µM 2015, read-out: MARK4 residual activity
  remaining activity at 0.2 µM: 94.8%
[7]; 1 µM 2015, read-out: MARK4 residual activity
  remaining activity at 1 µM: 84.1%
[7]; MARK4, 0.2 µM, read-out: residual activity
  remaining activity at 0.2 µM: 94.8%
[7]; MARK4, 1 µM, read-out: residual activity
  remaining activity at 1 µM: 84.1%
